Measurements: article PMC7160673, “A Degenerate Peptide Library Approach to Reveal Sequence Determinants of Methyllysine-Driven Protein Interactions” (Frontiers in Cell and Developmental Biology, 2020)

Key:
Format in all cases: binding
[1] = target: T1, MPP8 chromo (Homo sapiens, UniProt Q99549); assay: Histone peptide microarray, MPP8 chromo; conditions: normalized histone peptide array signal, hits; hybridization with 1 M MPP8 chromo (so in the source); two subarrays
T1 construct: 50-118; made in house; host or cells: E. coli BL21
T1 sequence (Q99549 50-118): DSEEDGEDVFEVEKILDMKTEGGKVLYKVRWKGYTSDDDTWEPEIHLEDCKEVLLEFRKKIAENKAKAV
Experimental: (§1) Peptide microarrays were fabricated using an Aushon 2470 microarrayer and used as described ([Cornett et al., 2017]) with the following modifications. Protein and antibody hybridization steps were performed in buffer containing 25 mM HEPES pH 7.5, 100 mM NaCl, 0.5% BSA (w/v), and 0.1% NP-40. Slides were washed 3 × 5 min in PBS supplemented with 0.1% Tween-20 between each hybridization step. Antibodies used were primary anti-GST (Sigma #7781, 1:2,000 dilution) and an AlexaFluor 647-labeled secondary antibody (Life Technologies A-21245, 1:5,000 dilution). […] Full lists of peptides queried by array analysis are in Supplementary Table S2.

[2] = target: T2, CDYL2 chromo (Homo sapiens, UniProt Q8N8U2); assay: Histone peptide microarray, CDYL2 chromo; conditions: normalized histone peptide array signal, hits; hybridization with 1 M CDYL2 chromo (so in the source); two subarrays
T2 construct: 1-75; made in house; host or cells: E. coli BL21
T2 sequence (Q8N8U2 1-75): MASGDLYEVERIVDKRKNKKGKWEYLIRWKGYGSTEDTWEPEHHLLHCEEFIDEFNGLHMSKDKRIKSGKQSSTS
Experimental: as §1

[3] = test system: Millipore #07-449, anti-H3K27me3; assay: Histone peptide microarray, Millipore 07-449; conditions: Millipore 07-449 (anti-H3K27me3) hits, average signal per peptide
[4] = test system: CST 9733 (anti-H3K27me3); assay: Histone peptide microarray, CST 9733; conditions: histone peptide array signal normalized to the highest peptide average per subarray, hits; CST 9733 LOT:14 dilution 1:5,000
[5] = test system: Active Motif #39161, anti-H3K9me3; assay: Histone peptide microarray, Active Motif 39161; conditions: Active Motif 39161 (anti-H3K9me3) hits
[6] = test system: Abcam #ab8895, anti-H3K4me1; assay: Histone peptide microarray, Abcam ab8895; conditions: Abcam ab8895 (anti-H3K4me1) hits, average signal per peptide
[7] = test system: ABClonal #A2355, anti-H3K4me1; assay: Histone peptide microarray, ABclonal A2355; conditions: Abclonal A2355 (anti-H3K4me1) hits
Experimental: as §1

[8] = test system: 53BP1 TTD; assay: Histone peptide microarray, 53BP1 TTD; conditions: 53BP1 TTD hits, average signal per peptide
In short: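 Binding of protein or antibody to arrayed histone peptides read by AlexaFluor 647 fluorescence, with anti-GST primary (1:2,000) and labelled secondary (1:5,000) for GST-fused domain. Hybridisations in HEPES pH 7.5 buffer with 100 mM NaCl, 0.5% BSA and 0.1% NP-40; triple PBS-Tween washes between steps.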

“ARTK(Ac)QTARK(Me3)STGGKAPRKQL-K(Biot)-NH2 [H3.1K4acK9me3]” was tested, and the “Avg Signal” value [1] was 0.6556, the “Avg Signal” value [2] was 0.363 and the “Avg Signal” value [3] was 0.01932. For the same substance, the “Avg Signal” value [4] was 0.00836 and the “Avg Signal” value [5] was 0.7317.
“Ac-SGRGK(Me)GGK(Ac)GLGK(Me)GGAKRHRKVLR-Peg-Biot [H4K5me1K8acK12me1]” was tested, and the “Avg Signal” value [1] was 0.009322, the “Avg Signal” value [3] was 0.001936 and the “Avg Signal” value [6] was 0.02853. The “Avg Signal” value [7] was 0.01549 and the “Avg Signal” value [5] was 0.03017.
“ARTKQTARK(Me2)STGGKAPRKQL-K(Biot)-NH2 [H3.1K9me2 H3.1(1-20)]” was tested, and the “Avg Signal” value [1] was 0.7317, the “Avg Signal” value [2] was 0.2996 and the “Avg Signal” value [4] was 0.0005298.
With “Ac-APRKQLAT-NleAARKSAPS-Peg-Biot [Peptide H3.3K23-Nle]” the “Avg Signal” value [3] was 0.001042, the “Avg Signal” value [4] was 0.0003783 and the “Avg Signal” value [7] was 0.0003163. The “Avg Signal” value [5] was 0.003975.
“Ac-APRKQLATKAARK(Me2)SAPSTGG-Peg-Biot [Peptide H3.3K27me2]” was tested, and the “Avg Signal” value [2] was 0.08888, the “Avg Signal” value [8] was 0.3374 and the “Avg Signal” value [3] was 0.003304. The “Avg Signal” value [4] was 0.0115 and the “Avg Signal” value [6] was 0.0005313.
With “ARTK(Me2)QpTARKSTGGKAPRKQL-K(Biot)-NH2 [Peptide H3.1K4me2T6p]” the “Avg Signal” value [8] was 0.2267, the “Avg Signal” value [4] was 0.0001379 and the “Avg Signal” value [6] was 0.1917. The “Avg Signal” value [7] was 0.3499 and the “Avg Signal” value [5] was 0.000965.
With “KSAPSpTGGVK(Me)KPHRYRPGT-G-K(Biot)-NH2 [H3.3K36meT32p]” the “Avg Signal” value [3] was 0.0077, the “Avg Signal” value [4] was 0.002226 and the “Avg Signal” value [6] was 0.005437. The “Avg Signal” value [7] was 0.00279 and the “Avg Signal” value [5] was 0.00231.
“ARTK(Me3)QTARK(Ac)pSTGGK(Ac)APRK(Ac)QL-K(Biot)-NH2 [H3.1K4me3K9acS10pK14acK18ac]” was tested, and the “Avg Signal” value [8] was 0.1468, the “Avg Signal” value [3] was 0.01919 and the “Avg Signal” value [4] was 0.002027. For the same substance, the “Avg Signal” value [7] was 0.02489 and the “Avg Signal” value [5] was 0.01388.
“AR(Me2s)TK(Me2)QTARKSTGGKAPRKQL-K(Biot)-NH2 [H3.1R2me2sK4me2]” was tested, and the “Avg Signal” value [8] was 0.2755, the “Avg Signal” value [4] was 0.003211 and the “Avg Signal” value [6] was 0.2778. The “Avg Signal” value [7] was 0.3527.
With “Ac-SGRGK(Me)GGK(Me)GLGK(Me)GGAKRHRKVLR-Peg-Biot [H4K5me1K8me1K12me1]” the “Avg Signal” value [2] was 0.4707, the “Avg Signal” value [6] was 0.06188 and the “Avg Signal” value [7] was 0.1176. For the same substance, the “Avg Signal” value [5] was 0.004623.
With “Ac-SGRGKGGKGLGK(Me)GGAKRHRKVLR-Peg-Biot [Peptide H4K12me1]” the “Avg Signal” value [3] was 0.0009635, the “Avg Signal” value [4] was 0.0001351 and the “Avg Signal” value [6] was 0.009402. The “Avg Signal” value [7] was 0.01394 and the “Avg Signal” value [5] was 0.001118.
With “ACitTK(Me2)QTARKSTGGKAPRKQL-K(Biot)-NH2 [H3.1Cit2K4me2]” the “Avg Signal” value [8] was 0.6324, the “Avg Signal” value [3] was 0.002853 and the “Avg Signal” value [4] was 0.0001108. For the same substance, the “Avg Signal” value [6] was 0.2048, the “Avg Signal” value [7] was 0.3053 and the “Avg Signal” value [5] was 2.176e-5.
For “Ac-SGRGK(Ac)GGK(Me)GLGK(Ac)GGAK(Ac)RHRKVLR-Peg-Biot [H4K5acK8me1K12acK16ac]”, the “Avg Signal” value [4] was 7.434e-5, the “Avg Signal” value [6] was 0.006645 and the “Avg Signal” value [7] was 0.003516. The “Avg Signal” value [5] was 0.001214.
For “ARTAQTARK(Me2)STGGKA-Peg-Biot [Peptide H3.1K4AK9me2]”, the “Avg Signal” value [1] was 0.07994 and the “Avg Signal” value [5] was 0.007885.
“Ac-SGRGKGGKGLGKGGAK(Ac)RHRK(Ac)VLR-Peg-Biot [Peptide H4K16acK20ac]” was tested, and the “Avg Signal” value [2] was 0.04591, the “Avg Signal” value [3] was 0.001622 and the “Avg Signal” value [6] was 0.002797. For the same substance, the “Avg Signal” value [7] was 0.000726 and the “Avg Signal” value [5] was 0.03564.
For “ARTKQTARK(Me3)pSTGGKAPRKQL-K(Biot)-NH2 [H3.1K9me3S10p]”, the “Avg Signal” value [1] was 0.04961, the “Avg Signal” value [8] was 0.1329 and the “Avg Signal” value [3] was 0.03312. The “Avg Signal” value [6] was 0.1409 and the “Avg Signal” value [5] was 0.1411.
In the case of “ARTK(Ac)QTARK(Me)STGGK(Ac)APRK(Ac)QL-K(Biot)-NH2 [H3.1K4acK9me1K14acK18ac]”, the “Avg Signal” value [1] is reported as 0.07749, the “Avg Signal” value [8] is reported as 0.1278 and the “Avg Signal” value [3] is reported as 0.004673. The “Avg Signal” value [6] was 0.5059.
